Results published in patent US20070270418A1, “Inhibitors of P38 and Methods of Using the Same” (priority 2003, published 2007).

What follows are compounds tested against T1, CaMKIV (Homo sapiens, UniProt Q16566) (assay: Broad selectivity panel, 32P incorporation). Settings: 0.1 μM compound, 40 μM ATP; read-out: Percent inhibition CaMKIV.
T1 construct: purchased Upstate (Charlottesville, Va.)
T1 sequence (Q16566 1-473): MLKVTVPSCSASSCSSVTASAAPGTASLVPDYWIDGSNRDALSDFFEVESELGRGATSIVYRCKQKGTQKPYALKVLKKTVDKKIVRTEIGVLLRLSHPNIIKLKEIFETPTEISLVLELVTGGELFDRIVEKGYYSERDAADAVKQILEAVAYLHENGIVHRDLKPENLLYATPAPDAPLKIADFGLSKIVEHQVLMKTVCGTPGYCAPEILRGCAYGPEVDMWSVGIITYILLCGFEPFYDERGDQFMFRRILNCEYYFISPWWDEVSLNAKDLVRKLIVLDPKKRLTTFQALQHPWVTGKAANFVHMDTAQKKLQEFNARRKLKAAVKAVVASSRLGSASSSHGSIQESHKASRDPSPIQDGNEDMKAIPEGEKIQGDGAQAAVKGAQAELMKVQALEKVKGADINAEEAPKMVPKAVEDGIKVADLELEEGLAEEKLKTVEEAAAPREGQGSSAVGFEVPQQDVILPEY
Format: biochemical
Experimental: (§1) Various compounds of the present invention are screened against a panel of 24 additional kinases (Upstate, Charlottesville, Va.). Compounds are tested 0.1 μM and 1 μM in reactions containing 40 μM ATP. Incorporation of radiolabeled phosphate (^32P) into each kinase substrate is measured in the presence and absence of test compound. Results are reported as the percent decrease in the amount of ^32P incorporated into the substrate in the presence of compound, compared to buffer control.
With `Fc1ccc(-c2nc3occn3c2-c2ccnc(NC3CCNCC3)n2)cc1` [CCLXXX] the inhibition at 0.1 µM was -10%.
Work on `CN(C)CC(C)(C)CNc1nccc(-c2c(-c3ccc(F)cc3)nc3occn23)n1` [CXIX] yielded an inhibition at 0.1 µM of 13%.

Same assay, conditions: 1 μM compound, 40 μM ATP; read-out: Percent inhibition CaMKIV
`Fc1ccc(-c2nc3occn3c2-c2ccnc(NC3CCNCC3)n2)cc1` [CCLXXX] was tested, and the inhibition at 1 µM was 7%.
Compound `CN(C)CC(C)(C)CNc1nccc(-c2c(-c3ccc(F)cc3)nc3occn23)n1` [CXIX] has an inhibition at 1 µM of 7%.

What follows are compounds tested against T2, FGFR3 (Homo sapiens, UniProt P22607) (assay: Broad selectivity panel, 32P incorporation). Settings: 0.1 μM compound, 40 μM ATP; read-out: Percent inhibition FGFR3.
T2 construct: purchased Upstate (Charlottesville, Va.)
T2 sequence (P22607 23-806, species assumed): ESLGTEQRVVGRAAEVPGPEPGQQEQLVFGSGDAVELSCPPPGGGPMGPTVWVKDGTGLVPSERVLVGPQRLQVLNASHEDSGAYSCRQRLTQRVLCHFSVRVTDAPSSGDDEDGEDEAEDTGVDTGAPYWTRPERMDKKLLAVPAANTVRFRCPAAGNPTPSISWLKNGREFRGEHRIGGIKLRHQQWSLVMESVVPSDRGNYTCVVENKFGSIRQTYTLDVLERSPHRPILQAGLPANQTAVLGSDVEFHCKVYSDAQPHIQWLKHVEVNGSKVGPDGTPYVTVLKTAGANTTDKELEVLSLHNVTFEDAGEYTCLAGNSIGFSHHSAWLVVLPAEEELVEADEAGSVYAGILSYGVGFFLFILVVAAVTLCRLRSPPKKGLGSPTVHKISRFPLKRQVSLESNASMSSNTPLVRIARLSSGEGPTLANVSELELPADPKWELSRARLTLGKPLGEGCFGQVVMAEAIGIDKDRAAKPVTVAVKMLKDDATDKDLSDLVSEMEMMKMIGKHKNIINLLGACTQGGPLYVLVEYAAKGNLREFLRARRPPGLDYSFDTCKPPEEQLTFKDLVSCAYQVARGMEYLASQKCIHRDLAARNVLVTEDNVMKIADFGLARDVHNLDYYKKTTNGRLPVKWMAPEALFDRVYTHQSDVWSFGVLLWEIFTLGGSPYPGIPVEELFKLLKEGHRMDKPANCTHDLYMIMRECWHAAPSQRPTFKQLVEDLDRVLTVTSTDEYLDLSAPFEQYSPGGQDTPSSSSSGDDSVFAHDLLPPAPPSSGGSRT
Format: biochemical
Experimental: as §1
`Fc1ccc(-c2nc3occn3c2-c2ccnc(NC3CCNCC3)n2)cc1` [CCLXXX] was tested, and the inhibition at 0.1 µM was -1%.
`CN(C)CC(C)(C)CNc1nccc(-c2c(-c3ccc(F)cc3)nc3occn23)n1` [CXIX] gave an inhibition at 0.1 µM of 9%.

Same assay, conditions: 1 μM compound, 40 μM ATP; read-out: Percent inhibition FGFR3
Work on `Fc1ccc(-c2nc3occn3c2-c2ccnc(NC3CCNCC3)n2)cc1` [CCLXXX] yielded an inhibition at 1 µM of 13%.
With `CN(C)CC(C)(C)CNc1nccc(-c2c(-c3ccc(F)cc3)nc3occn23)n1` [CXIX] the inhibition at 1 µM was -2%.

The compounds below were run against T3, JNK3-His (Homo sapiens, UniProt P53779) (assay: Broad selectivity panel, 32P incorporation). Settings: 0.1 μM compound, 40 μM ATP; read-out: Percent inhibition JNK3-His.
T3 construct: His; purchased Upstate (Charlottesville, Va.)
T3 sequence (P53779 whole entry): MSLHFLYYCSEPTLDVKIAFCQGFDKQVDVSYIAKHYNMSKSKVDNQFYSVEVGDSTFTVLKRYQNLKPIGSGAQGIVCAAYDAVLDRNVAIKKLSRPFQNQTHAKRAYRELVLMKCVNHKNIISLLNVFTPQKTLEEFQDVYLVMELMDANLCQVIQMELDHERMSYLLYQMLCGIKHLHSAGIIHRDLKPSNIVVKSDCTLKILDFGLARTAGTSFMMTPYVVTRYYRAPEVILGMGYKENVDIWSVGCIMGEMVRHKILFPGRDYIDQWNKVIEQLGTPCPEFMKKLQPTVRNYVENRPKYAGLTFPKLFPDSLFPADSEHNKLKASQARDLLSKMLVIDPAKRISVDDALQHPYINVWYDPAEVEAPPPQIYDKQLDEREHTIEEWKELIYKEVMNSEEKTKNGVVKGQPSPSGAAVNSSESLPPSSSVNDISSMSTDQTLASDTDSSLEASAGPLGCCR
Format: biochemical
Experimental: as §1
`Fc1ccc(-c2nc3occn3c2-c2ccnc(NC3CCNCC3)n2)cc1` [CCLXXX] showed an inhibition at 0.1 µM of 39%.
With `CN(C)CC(C)(C)CNc1nccc(-c2c(-c3ccc(F)cc3)nc3occn23)n1` [CXIX] the inhibition at 0.1 µM was 19%.

Same assay, conditions: 1 μM compound, 40 μM ATP; read-out: Percent inhibition JNK3-His
In the case of `Fc1ccc(-c2nc3occn3c2-c2ccnc(NC3CCNCC3)n2)cc1` [CCLXXX], the inhibition at 1 µM is reported as 84%.
With `CN(C)CC(C)(C)CNc1nccc(-c2c(-c3ccc(F)cc3)nc3occn23)n1` [CXIX] the inhibition at 1 µM was 56%.

The compounds below were run against T4, Lyn (Homo sapiens, UniProt P07948) (assay: Broad selectivity panel, 32P incorporation). Settings: 0.1 μM compound, 40 μM ATP; read-out: Percent inhibition Lyn.
T4 construct: purchased Upstate (Charlottesville, Va.)
T4 sequence (P07948 whole entry, species assumed): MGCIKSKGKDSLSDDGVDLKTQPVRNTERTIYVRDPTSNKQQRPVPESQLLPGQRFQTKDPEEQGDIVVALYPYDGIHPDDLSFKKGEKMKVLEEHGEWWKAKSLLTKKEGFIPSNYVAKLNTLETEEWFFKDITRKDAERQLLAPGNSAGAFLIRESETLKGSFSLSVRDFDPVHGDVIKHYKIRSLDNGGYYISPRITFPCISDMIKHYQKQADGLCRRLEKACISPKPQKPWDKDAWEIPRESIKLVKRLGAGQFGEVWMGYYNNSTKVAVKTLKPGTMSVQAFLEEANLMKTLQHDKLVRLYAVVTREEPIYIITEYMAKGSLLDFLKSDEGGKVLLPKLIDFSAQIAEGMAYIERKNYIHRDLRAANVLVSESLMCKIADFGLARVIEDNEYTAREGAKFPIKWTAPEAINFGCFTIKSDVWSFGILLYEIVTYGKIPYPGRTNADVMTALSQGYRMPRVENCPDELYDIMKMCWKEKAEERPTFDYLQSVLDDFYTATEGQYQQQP
Format: biochemical
Experimental: as §1
`Fc1ccc(-c2nc3occn3c2-c2ccnc(NC3CCNCC3)n2)cc1` [CCLXXX] showed an inhibition at 0.1 µM of -24%.
In the case of `CN(C)CC(C)(C)CNc1nccc(-c2c(-c3ccc(F)cc3)nc3occn23)n1` [CXIX], the inhibition at 0.1 µM is reported as 2%.

Same assay, conditions: 1 μM compound, 40 μM ATP; read-out: Percent inhibition Lyn
`Fc1ccc(-c2nc3occn3c2-c2ccnc(NC3CCNCC3)n2)cc1` [CCLXXX] was tested, and the inhibition at 1 µM was 27%.
Compound `CN(C)CC(C)(C)CNc1nccc(-c2c(-c3ccc(F)cc3)nc3occn23)n1` [CXIX] has an inhibition at 1 µM of -12%.

The compounds below were run against T5, MAPK1 (Homo sapiens, UniProt P27361) (assay: Broad selectivity panel, 32P incorporation). Settings: 0.1 μM compound, 40 μM ATP; read-out: Percent inhibition MAPK1.
T5 construct: purchased Upstate (Charlottesville, Va.)
T5 sequence (P27361 whole entry): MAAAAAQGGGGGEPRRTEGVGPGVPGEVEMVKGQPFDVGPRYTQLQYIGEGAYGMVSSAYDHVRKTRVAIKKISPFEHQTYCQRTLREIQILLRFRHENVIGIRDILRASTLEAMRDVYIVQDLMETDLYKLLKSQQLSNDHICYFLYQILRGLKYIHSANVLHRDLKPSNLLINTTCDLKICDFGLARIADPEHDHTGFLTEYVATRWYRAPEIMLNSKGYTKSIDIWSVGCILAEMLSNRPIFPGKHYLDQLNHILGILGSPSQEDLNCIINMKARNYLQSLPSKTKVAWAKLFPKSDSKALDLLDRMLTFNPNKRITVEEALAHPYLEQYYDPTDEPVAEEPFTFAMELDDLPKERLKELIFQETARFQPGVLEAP
Format: biochemical
Experimental: as §1
`Fc1ccc(-c2nc3occn3c2-c2ccnc(NC3CCNCC3)n2)cc1` [CCLXXX] showed an inhibition at 0.1 µM of 20%.
With `CN(C)CC(C)(C)CNc1nccc(-c2c(-c3ccc(F)cc3)nc3occn23)n1` [CXIX] the inhibition at 0.1 µM was 7%.

Same assay, conditions: 1 μM compound, 40 μM ATP; read-out: Percent inhibition MAPK1
In the case of `Fc1ccc(-c2nc3occn3c2-c2ccnc(NC3CCNCC3)n2)cc1` [CCLXXX], the inhibition at 1 µM is reported as 45%.
For `CN(C)CC(C)(C)CNc1nccc(-c2c(-c3ccc(F)cc3)nc3occn23)n1` [CXIX], the inhibition at 1 µM was 15%.

These compounds were tested against T6, PKB α (Homo sapiens, UniProt P31749) (assay: Broad selectivity panel, 32P incorporation). Settings: 0.1 μM compound, 40 μM ATP; read-out: Percent inhibition PKB α.
T6 construct: purchased Upstate (Charlottesville, Va.)
T6 sequence (P31749 whole entry, species assumed): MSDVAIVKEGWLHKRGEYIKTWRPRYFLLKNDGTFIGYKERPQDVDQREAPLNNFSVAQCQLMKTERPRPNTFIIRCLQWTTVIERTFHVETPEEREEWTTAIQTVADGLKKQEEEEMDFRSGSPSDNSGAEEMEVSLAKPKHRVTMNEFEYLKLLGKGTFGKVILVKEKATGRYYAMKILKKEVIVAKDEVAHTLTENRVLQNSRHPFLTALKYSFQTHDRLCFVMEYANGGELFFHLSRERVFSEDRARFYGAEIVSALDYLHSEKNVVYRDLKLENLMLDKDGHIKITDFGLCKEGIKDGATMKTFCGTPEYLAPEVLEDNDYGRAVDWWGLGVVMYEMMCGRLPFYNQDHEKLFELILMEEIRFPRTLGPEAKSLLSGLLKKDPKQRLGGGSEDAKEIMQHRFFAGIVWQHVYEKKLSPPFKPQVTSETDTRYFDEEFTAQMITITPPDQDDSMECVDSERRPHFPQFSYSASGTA
Format: biochemical
Experimental: as §1
In the case of `Fc1ccc(-c2nc3occn3c2-c2ccnc(NC3CCNCC3)n2)cc1` [CCLXXX], the inhibition at 0.1 µM is reported as -1%.
Compound `CN(C)CC(C)(C)CNc1nccc(-c2c(-c3ccc(F)cc3)nc3occn23)n1` [CXIX] has an inhibition at 0.1 µM of 11%.

Same assay, conditions: 1 μM compound, 40 μM ATP; read-out: Percent inhibition PKB α
`Fc1ccc(-c2nc3occn3c2-c2ccnc(NC3CCNCC3)n2)cc1` [CCLXXX] was tested, and the inhibition at 1 µM was 13%.
With `CN(C)CC(C)(C)CNc1nccc(-c2c(-c3ccc(F)cc3)nc3occn23)n1` [CXIX] the inhibition at 1 µM was 5%.

The compounds below were run against T7, PKBβ (Homo sapiens, UniProt P31751) (assay: Broad selectivity panel, 32P incorporation). Settings: 0.1 μM compound, 40 μM ATP; read-out: Percent inhibition PKBβ.
T7 construct: purchased Upstate (Charlottesville, Va.)
T7 sequence (P31751 whole entry, species assumed): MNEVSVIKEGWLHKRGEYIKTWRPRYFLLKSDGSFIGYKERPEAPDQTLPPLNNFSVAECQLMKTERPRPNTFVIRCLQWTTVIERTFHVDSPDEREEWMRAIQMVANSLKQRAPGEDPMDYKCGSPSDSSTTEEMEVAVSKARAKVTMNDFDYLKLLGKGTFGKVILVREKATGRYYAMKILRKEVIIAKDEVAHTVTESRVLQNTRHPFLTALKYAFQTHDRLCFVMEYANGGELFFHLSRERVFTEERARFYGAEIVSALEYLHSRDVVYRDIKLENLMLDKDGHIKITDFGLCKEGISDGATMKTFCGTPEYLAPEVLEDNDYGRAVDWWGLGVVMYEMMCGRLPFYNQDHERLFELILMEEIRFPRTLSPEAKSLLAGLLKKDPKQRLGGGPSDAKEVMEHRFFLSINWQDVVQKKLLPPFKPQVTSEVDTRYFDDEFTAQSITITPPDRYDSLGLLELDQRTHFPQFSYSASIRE
Format: biochemical
Experimental: as §1
Work on `Fc1ccc(-c2nc3occn3c2-c2ccnc(NC3CCNCC3)n2)cc1` [CCLXXX] yielded an inhibition at 0.1 µM of -18%.
Work on `CN(C)CC(C)(C)CNc1nccc(-c2c(-c3ccc(F)cc3)nc3occn23)n1` [CXIX] yielded an inhibition at 0.1 µM of -4%.

Same assay, conditions: 1 μM compound, 40 μM ATP; read-out: Percent inhibition PKBβ
Compound `Fc1ccc(-c2nc3occn3c2-c2ccnc(NC3CCNCC3)n2)cc1` [CCLXXX] has an inhibition at 1 µM of 13%.
`CN(C)CC(C)(C)CNc1nccc(-c2c(-c3ccc(F)cc3)nc3occn23)n1` [CXIX] was tested, and the inhibition at 1 µM was -19%.

These compounds were tested on ROCK-II (assay: Broad selectivity panel, 32P incorporation). Settings: 0.1 μM compound, 40 μM ATP.
Format: biochemical
Experimental: as §1
With `Fc1ccc(-c2nc3occn3c2-c2ccnc(NC3CCNCC3)n2)cc1` [CCLXXX] the “Percent inhibition ROCK-II” value was 8.
With `CN(C)CC(C)(C)CNc1nccc(-c2c(-c3ccc(F)cc3)nc3occn23)n1` [CXIX] the “Percent inhibition ROCK-II” value was 16.

Same assay, conditions: 1 μM compound, 40 μM ATP
`Fc1ccc(-c2nc3occn3c2-c2ccnc(NC3CCNCC3)n2)cc1` [CCLXXX] was tested, and the “Percent inhibition ROCK-II” value was 10.
With `CN(C)CC(C)(C)CNc1nccc(-c2c(-c3ccc(F)cc3)nc3occn23)n1` [CXIX] the “Percent inhibition ROCK-II” value was −8.

The compounds below were run against T8, ZAP-70 (Homo sapiens, UniProt P43403) (assay: Broad selectivity panel, 32P incorporation). Settings: 0.1 μM compound, 40 μM ATP; read-out: Percent inhibition ZAP-70.
T8 construct: purchased Upstate (Charlottesville, Va.)
T8 sequence (P43403 1-619): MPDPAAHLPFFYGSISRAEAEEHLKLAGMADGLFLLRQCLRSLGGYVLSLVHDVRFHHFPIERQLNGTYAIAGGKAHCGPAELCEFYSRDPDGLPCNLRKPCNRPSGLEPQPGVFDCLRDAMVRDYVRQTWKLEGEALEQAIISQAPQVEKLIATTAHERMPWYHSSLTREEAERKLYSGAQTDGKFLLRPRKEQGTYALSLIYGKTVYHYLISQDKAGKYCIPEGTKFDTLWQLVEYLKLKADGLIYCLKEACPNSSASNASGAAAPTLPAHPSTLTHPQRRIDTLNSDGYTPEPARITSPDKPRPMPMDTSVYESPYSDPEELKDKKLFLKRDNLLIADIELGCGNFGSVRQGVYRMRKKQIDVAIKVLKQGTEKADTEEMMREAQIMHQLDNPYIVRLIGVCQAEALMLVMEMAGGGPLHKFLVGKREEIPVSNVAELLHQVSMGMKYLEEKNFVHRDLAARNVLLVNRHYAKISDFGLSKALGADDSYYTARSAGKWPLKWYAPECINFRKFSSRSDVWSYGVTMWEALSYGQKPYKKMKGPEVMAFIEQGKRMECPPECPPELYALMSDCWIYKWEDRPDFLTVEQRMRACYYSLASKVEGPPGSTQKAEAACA
Format: biochemical
Experimental: as §1
For `Fc1ccc(-c2nc3occn3c2-c2ccnc(NC3CCNCC3)n2)cc1` [CCLXXX], the inhibition at 0.1 µM was -2%.
In the case of `CN(C)CC(C)(C)CNc1nccc(-c2c(-c3ccc(F)cc3)nc3occn23)n1` [CXIX], the inhibition at 0.1 µM is reported as 13%.

Same assay, conditions: 1 μM compound, 40 μM ATP; read-out: Percent inhibition ZAP-70
`Fc1ccc(-c2nc3occn3c2-c2ccnc(NC3CCNCC3)n2)cc1` [CCLXXX] gave an inhibition at 1 µM of 9%.
`CN(C)CC(C)(C)CNc1nccc(-c2c(-c3ccc(F)cc3)nc3occn23)n1` [CXIX] gave an inhibition at 1 µM of -9%.

The compounds below were run against T9, c-RAF (Homo sapiens, UniProt P04049) (assay: Broad selectivity panel, 32P incorporation). Settings: 0.1 μM compound, 40 μM ATP; read-out: Percent inhibition c-RAF.
T9 construct: purchased Upstate (Charlottesville, Va.)
T9 sequence (P04049 whole entry, species assumed): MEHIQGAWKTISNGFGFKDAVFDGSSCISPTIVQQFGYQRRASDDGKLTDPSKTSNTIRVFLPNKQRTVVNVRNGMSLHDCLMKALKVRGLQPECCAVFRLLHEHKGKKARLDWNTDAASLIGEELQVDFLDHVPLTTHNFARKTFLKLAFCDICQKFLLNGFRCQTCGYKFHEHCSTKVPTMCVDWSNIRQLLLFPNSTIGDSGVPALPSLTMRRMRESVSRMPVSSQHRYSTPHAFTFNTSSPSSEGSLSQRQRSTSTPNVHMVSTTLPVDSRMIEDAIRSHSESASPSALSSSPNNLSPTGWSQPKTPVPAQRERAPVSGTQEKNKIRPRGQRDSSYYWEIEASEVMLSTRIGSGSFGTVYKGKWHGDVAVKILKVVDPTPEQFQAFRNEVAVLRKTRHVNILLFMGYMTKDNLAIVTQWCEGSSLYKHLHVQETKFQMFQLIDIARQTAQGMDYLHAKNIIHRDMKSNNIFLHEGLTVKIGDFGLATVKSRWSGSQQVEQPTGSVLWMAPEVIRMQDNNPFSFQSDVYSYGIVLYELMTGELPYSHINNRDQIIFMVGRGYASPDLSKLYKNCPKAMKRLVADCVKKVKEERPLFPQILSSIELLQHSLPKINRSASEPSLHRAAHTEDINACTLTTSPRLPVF
Format: biochemical
Experimental: as §1
`Fc1ccc(-c2nc3occn3c2-c2ccnc(NC3CCNCC3)n2)cc1` [CCLXXX] was tested, and the inhibition at 0.1 µM was 21%.
Compound `CN(C)CC(C)(C)CNc1nccc(-c2c(-c3ccc(F)cc3)nc3occn23)n1` [CXIX] has an inhibition at 0.1 µM of -3%.

Same assay, conditions: 1 μM compound, 40 μM ATP; read-out: Percent inhibition c-RAF
For `Fc1ccc(-c2nc3occn3c2-c2ccnc(NC3CCNCC3)n2)cc1` [CCLXXX], the inhibition at 1 µM was 75%.
For `CN(C)CC(C)(C)CNc1nccc(-c2c(-c3ccc(F)cc3)nc3occn23)n1` [CXIX], the inhibition at 1 µM was 3%.

The compounds below were run on p70S6K (assay: Broad selectivity panel, 32P incorporation). Settings: 0.1 μM compound, 40 μM ATP.
Format: biochemical
Experimental: as §1
In the case of `Fc1ccc(-c2nc3occn3c2-c2ccnc(NC3CCNCC3)n2)cc1` [CCLXXX], the “Percent inhibition p70S6K” value is reported as 7.
With `CN(C)CC(C)(C)CNc1nccc(-c2c(-c3ccc(F)cc3)nc3occn23)n1` [CXIX] the “Percent inhibition p70S6K” value was 0.

Same assay, conditions: 1 μM compound, 40 μM ATP
For `Fc1ccc(-c2nc3occn3c2-c2ccnc(NC3CCNCC3)n2)cc1` [CCLXXX], the “Percent inhibition p70S6K” value was 18.
For `CN(C)CC(C)(C)CNc1nccc(-c2c(-c3ccc(F)cc3)nc3occn23)n1` [CXIX], the “Percent inhibition p70S6K” value was −5.
